# In patent publication US9970945B2, “Compositions, methods, and assays using proteo-liposome-transfected oocytes for analyzing the structure, function, and activity of membrane proteins” (Georgia State University Research Foundation, Inc., priority 2013, dated 2018):
# Tests used:
# [1] = target: T1, EcSecA (Escherichia coli, UniProt P10408); format: cell-based, E. coli; settings: channel activity assay
# T1 construct: made in house; host or cells: E. coli BL21(λDE3)/pT7-SecA
# [2] = target: T2, Cx26 (Homo sapiens, UniProt P29033); test: Cx26-proteoliposome hemi-channel activity in Xenopus oocytes; format: cell-based
# T2 construct: His6 (C); made in house; host or cells: insect Sf9 cells, Bac-to-Bac baculovirus system
# Protocol: Voltage Clamp was performed to measure the opening of protein conducting channels. When the channel on the cell membrane was opened, ions pass through the membrane and generate the ionic current. Thus, the recording of ionic current could also mean the opening of the protein conducting channel. Currents through the plasma membranes of oocytes were measured after the oocytes were injected with tested materials. The cells were place in a recording chamber (BSC-HT, Medical System, Greenvale, N.Y.) on a supporting nylon mesh, so that the perfusion solution bathed both the top and the bottom surface of the oocytes. Two electrode voltage clamping was performed using an amplifier (Geneclamp 500, Axon instruments Inc., Foster City, Calif.) at room temperature (23-25° C.). Cells were impaled using electrodes filled with 3 M KCl. One of the electrode (1.0-2.0 MΩ) used for voltage recording was connected to the HS-2×1 L headstage (input resistance, […]), and the other electrode (0.3-0.6 MΩ) was used for current recording to the HS-2×10 MG headstage (maximum current, 130 μA). The electrode was connected through a silver wire that was chloridized freshly for each experiment. Oocytes were used for further experiments only if their leak currents measured as the difference before and after a leak subtraction were less than 10% of the peak currents. The leak subtraction was not applied for data acquisition and analysis. Current records were low-pass filtered (Bessel, 4-pole filter, 3 db at 5 kHz), digitized at 5 kHz (12 but resolution), and analyzed using pClamp6 (Axon Instruments). The highest and lowest records were eliminated, and then the data are presented as mean±S.E. (standard error; n, number of oocytes). The expression rates for each injection sample were also collected as a record to determine the channel activity efficiency.
# The E. coli liposomes treated with detergent were mixed with purified Cx26 protein at 10:1 ratio. Then the mixture was dialyzed in dialysis solution (0.25 M Sucrose, 0.4 M KOAC, 20 mM triethanolamine hydrocholoride pH7.5, 1.5 mM Mg(OAC)2 and 1 mM EDTA) at 4° C. for 15-18 hours to reconstitute the Cx-26-proteoliposomes.
# 10 ng reconstituted Cx26-proteoliposomes was mixed with or without EGTA or CaCl2 and injected into oocytes. The injected oocytes were incubated at 23° C. for 30 mins with 1.8 mM CaCl2 to suppress the bubbling. Recording bath solution was 90K (90 mM KCl, 5 mM HEPES, 3 mM MgCl2) without Ca^2+. For Ca^2+ inhibition, the CaCl2 was added in the extracellular recording bath solution during the recording.
# [3] = target: T3, PaSecA (Pseudomonas aeruginosa, UniProt Q9LCT3); test: SecA-liposomes ion-channel activity in Xenopus oocytes (two-electrode voltage clamp); format: cell-based, P. aeruginosa; settings: injected PaSecA-liposomes in oocytes
# T3 construct: made in house; host or cells: E. coli BL21.19
# [4] = target: T4, E. coli SecA translocation ATPase (Escherichia coli, UniProt P10408); test: In vitro translocation ATPase inhibition kinetics; format: biochemical; settings: requires SecYEG and precursors
# T4 construct: made in house; host or cells: E. coli BL21(λDE3)/pT7-SecA (SecA); E. coli membranes supply SecYEG
# [5] = target: Soluble SecA intrinsic ATPase (Escherichia coli, UniProt P10408); test: Soluble SecA intrinsic ATPase inhibition kinetics; format: biochemical; settings: data not shown
# Chain of Soluble SecA intrinsic ATPase (P10408 whole entry): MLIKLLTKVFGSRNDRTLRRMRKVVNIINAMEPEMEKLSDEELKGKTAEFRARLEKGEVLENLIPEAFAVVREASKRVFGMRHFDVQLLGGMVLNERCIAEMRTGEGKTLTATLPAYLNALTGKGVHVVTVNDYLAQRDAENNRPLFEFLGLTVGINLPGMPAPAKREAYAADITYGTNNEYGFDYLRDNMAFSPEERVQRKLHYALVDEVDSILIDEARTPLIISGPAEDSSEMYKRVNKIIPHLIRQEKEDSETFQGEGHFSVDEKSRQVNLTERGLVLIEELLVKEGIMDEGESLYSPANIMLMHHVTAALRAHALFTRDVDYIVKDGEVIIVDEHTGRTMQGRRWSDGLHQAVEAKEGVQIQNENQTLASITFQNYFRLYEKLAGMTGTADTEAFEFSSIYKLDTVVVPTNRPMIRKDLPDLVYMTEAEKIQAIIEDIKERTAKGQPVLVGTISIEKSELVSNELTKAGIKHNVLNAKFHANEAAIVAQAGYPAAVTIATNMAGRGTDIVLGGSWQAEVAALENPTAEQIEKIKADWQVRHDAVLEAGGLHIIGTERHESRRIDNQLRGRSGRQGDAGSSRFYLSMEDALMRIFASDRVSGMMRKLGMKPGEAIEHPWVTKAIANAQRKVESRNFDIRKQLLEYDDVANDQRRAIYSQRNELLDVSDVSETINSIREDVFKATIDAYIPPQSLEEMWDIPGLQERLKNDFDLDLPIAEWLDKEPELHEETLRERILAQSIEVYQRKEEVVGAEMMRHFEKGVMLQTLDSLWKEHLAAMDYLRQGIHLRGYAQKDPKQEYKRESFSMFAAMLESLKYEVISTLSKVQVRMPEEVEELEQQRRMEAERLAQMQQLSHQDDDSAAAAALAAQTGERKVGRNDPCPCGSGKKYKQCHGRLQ
# T3 sequence (Q9LCT3 whole entry): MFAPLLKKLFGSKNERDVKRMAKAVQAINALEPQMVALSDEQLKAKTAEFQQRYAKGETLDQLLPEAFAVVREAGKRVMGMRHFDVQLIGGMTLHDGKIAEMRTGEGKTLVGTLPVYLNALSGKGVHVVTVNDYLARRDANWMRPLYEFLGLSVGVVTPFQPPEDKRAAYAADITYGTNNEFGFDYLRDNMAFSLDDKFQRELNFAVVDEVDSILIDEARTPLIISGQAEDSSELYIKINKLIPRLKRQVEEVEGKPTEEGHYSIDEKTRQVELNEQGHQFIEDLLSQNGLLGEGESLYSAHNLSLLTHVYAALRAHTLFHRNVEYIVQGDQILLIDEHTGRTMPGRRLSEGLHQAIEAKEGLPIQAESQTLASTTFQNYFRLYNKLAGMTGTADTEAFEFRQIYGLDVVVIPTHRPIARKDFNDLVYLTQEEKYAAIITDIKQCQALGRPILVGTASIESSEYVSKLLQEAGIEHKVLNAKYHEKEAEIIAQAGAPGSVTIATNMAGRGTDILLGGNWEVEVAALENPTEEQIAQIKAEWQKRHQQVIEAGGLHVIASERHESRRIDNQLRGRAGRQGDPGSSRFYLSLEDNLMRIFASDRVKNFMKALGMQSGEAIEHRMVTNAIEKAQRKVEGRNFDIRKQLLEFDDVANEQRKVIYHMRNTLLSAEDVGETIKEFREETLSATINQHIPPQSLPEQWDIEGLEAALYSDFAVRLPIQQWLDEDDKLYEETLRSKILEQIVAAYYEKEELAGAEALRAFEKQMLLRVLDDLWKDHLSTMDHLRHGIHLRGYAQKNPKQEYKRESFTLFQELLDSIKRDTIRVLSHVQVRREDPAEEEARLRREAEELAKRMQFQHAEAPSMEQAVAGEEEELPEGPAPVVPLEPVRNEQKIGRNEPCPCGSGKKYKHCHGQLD
# T4 sequence (P10408 whole entry): as the sequence (P10408 whole entry) above
# T4 sequence (P0AGA2 whole entry, further chain): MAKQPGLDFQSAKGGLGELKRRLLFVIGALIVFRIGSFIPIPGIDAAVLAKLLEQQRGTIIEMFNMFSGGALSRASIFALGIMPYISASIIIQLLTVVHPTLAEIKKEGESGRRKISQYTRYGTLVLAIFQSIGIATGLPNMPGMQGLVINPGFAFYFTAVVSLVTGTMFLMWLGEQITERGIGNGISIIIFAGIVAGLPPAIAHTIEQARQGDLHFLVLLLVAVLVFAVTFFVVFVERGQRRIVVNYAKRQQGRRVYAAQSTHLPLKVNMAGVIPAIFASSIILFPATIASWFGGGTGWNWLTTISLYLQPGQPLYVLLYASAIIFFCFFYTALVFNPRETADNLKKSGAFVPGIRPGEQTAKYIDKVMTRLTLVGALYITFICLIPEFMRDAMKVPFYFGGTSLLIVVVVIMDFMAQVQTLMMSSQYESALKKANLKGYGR
# T4 sequence (P0AG96 whole entry, further chain): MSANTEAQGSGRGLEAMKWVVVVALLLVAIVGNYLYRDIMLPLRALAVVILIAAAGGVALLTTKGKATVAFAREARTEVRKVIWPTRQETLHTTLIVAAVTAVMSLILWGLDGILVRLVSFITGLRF
# T4 sequence (P0AG99 whole entry, further chain): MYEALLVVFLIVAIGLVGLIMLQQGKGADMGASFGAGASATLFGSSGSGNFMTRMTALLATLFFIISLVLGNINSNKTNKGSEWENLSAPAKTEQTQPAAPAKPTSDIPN
# T1 sequence (P10408 whole entry): as the sequence (P10408 whole entry) above
smiles,measurement,setting,value
Oc1ccc2c(c1)Oc1cc(O)ccc1C2C1CCCCC1 [22d],Potency against EcSecA relative to BsSecA,[1],about 2 fold
[Ca+2].[Cl-].[Cl-] [CaCl2],Cx26 channel current,"[2]; 30 mM CaCl2 added to same extracellular bath after EGTA, 2 mins incubation",1.3 μA
same,Effect on Cx26 channel activity,[2]; CaCl2 co-injected with 5 mM EGTA,reduced the activity
same,Half-time of inhibition of Cx26 channel activity,[2]; CaCl2 in extracellular bath solution,about 1 min
same,Effect on Cx26 channel activity,[2]; co-injection with 2 mM CaCl2,slightly inhibited
O=C(O)CN(CCOCCOCCN(CC(=O)O)CC(=O)O)CC(=O)O [EGTA],Cx26 channel current,"[2]; 10 mM EGTA in extracellular recording bath, from 2 μA",7 μA
same,Cx26 hemi-channel activity (current),"[2]; co-injection with 5 mM EGTA, Cx26-liposomes alone around 2 μA",7 μA
"O=C(O)c1c(Cl)c(Cl)c(Cl)c(Cl)c1-c1c2cc(I)c(=O)c(I)c-2oc2c(I)c(O)c(I)cc12 [RB, Rose Bengal]","Inhibition kinetics with ATP, channel activity",[3],non-competitive
same,Inhibition kinetics with ATP,[4],non-competitive
same,Inhibition kinetics with RB,[5]; high ATP,competitive
same,Inhibition kinetics with RB,[5]; low ATP,non-competitive
